The text below walks through data of article PMC10536189 (Microorganisms, 2023).

The test system of experiment [1] is mycobacteria. The experiment in a line: TTP in VersaTrek system. It counts as cell-based. The conditions noted are these: Peptide 14D; VersaTrek (ThermoFisher); Figure S1. How it is done:
(§1) Peptide 14D was used to check if other machines that are routinely used in medical microbiology for the detection of mycobacteria show shorter TTP as well. BacT/Alert (Biomerieux, Marcy-l’Étoile, France and VersaTrek (ThermoFisher, Waltham, MA, United States) were tested, and shorter TTP was shown for both systems (see Figure S1 in the Supplementary Materials).

Experiment [2] relates to Mycobacterium tuberculosis (MTB). It counts as cell-based, Mycobacterium tuberculosis (laboratory strain H37Rv).
Experiment [3] concerns Mycobacterium avium subsp. paratuberculosis (MAP). The class given is cell-based.
Experiment [4] has as its system mycobacteria. The experiment in a line: TTP in BacT/Alert system. It counts as cell-based. The conditions noted are these: Peptide 14D; BacT/Alert (Biomerieux); Figure S1. On the procedure:
as §1

The next experiment relates to MTB H37Rv. The class given is cell-based, Mycobacterium tuberculosis H37Rv. The conditions noted are these: 14D at 1 µg/mL.
In the next experiment the test system is M. tuberculosis. The class given is cell-based, Mycobacterium tuberculosis (laboratory strain H37Rv). The conditions noted are these: for Time to Positivity (Days.Hours) Experiment 2: control (0 µg/mL) 6.12; for Time to Positivity (Days.Hours) Experiment 1: control (0 µg/mL) 6.19.
The subject of another experiment is Mycobacterium celatum. It counts as cell-based, Mycobacterium celatum (clinical isolate). The conditions noted are these: Peptide 14 at 20 µg/mL.
Experiment [5] relates to Mycobacterium avium-intracellulare. It counts as cell-based, Mycobacterium intracellulare serotype 7 NCTC10682. The conditions noted are these: Peptide 14 at 20 µg/mL.
For another experiment, the system named is M. bovis. It counts as cell-based.
The subject of the next experiment is Mycobacterium marinum. The class given is cell-based, Mycobacterium marinum NCTC 2275. The conditions noted are these: Peptide 14 at 20 µg/mL, 30 °C.
Another experiment relates to Mycobacterium abscessus. The class given is cell-based, Mycobacterium abscessus (clinical human isolate). The conditions noted are these: Peptide 14 at 20 µg/mL.

Like-named read-outs stand apart in the source and are kept apart here. Where no end group is shown, it is not given here.

As to wkivfwwrr-CONH2 [Peptide 14D], the “Effect on TTP” value with mycobacteria [1] and in the experiment on mycobacteria [4] was “shorter TTP” throughout. The “Concentration at which growth inhibition of MTB is observed” value in [2] is listed as at least 10 µg/mL. Also, the “Concentration with strong sustained growth stimulation of MTB” value in [2] is listed as 1 µg/mL. In addition, the “Growth enhancement after the peptide was removed” value in experiment [3] is given as “reversible”. The “Effect on growth of MAP (growth-enhancing activity) of protease-stabilised peptides” value in experiment [3] (peptide 10 µg/mL, absorbance at 600 nm) is listed as “small improvement in activity”. Besides, the “Copy number compared with MTB control” value with MTB H37Rv was “higher copy number”. This substance also returned a Copy number in the experiment on MTB H37Rv ([…], duplicates, cydA Taqman qPCR) of 1762000. Besides, the “Time to Positivity (Days.Hours) Experiment 2” value with M. tuberculosis (Peptide 14D 0.1 µg/mL, MGIT) is on record as 5.19 Days.Hours; in the experiment on M. tuberculosis (Peptide 14D 0.5 µg/mL, MGIT) it was 5.17 Days.Hours; in the experiment with M. tuberculosis (Peptide 14D 1 µg/mL, MGIT), 5.08 Days.Hours; in the experiment with M. tuberculosis (Peptide 14D 10 µg/mL, MGIT), 7.08 Days.Hours; with M. tuberculosis (Peptide 14D 25 µg/mL, MGIT) it was 9.17 Days.Hours. The “Time to Positivity (Days.Hours) Experiment 1” value was 5.12 Days.Hours with M. tuberculosis (Peptide 14D 0.1 µg/mL, MGIT); 5.17 Days.Hours with M. tuberculosis (Peptide 14D 0.5 µg/mL, MGIT); 5.05 Days.Hours in the experiment with M. tuberculosis (Peptide 14D 1 µg/mL, MGIT); 7.03 Days.Hours in the experiment on M. tuberculosis (Peptide 14D 10 µg/mL, MGIT); 9.21 Days.Hours in the experiment with M. tuberculosis (Peptide 14D 25 µg/mL, MGIT); 19.15 Days.Hours with M. tuberculosis (Peptide 14D 50 µg/mL, MGIT). Also, the “Average % Faster than Control” value in the experiment on M. tuberculosis (Peptide 14D 0.1 µg/mL, average of two independent experiments) was 15.0%; in the experiment with M. tuberculosis (Peptide 14D 0.5 µg/mL, average of two independent experiments), 14.1%; in the experiment with M. tuberculosis (Peptide 14D 1 µg/mL, average of two independent experiments), 21.6%; in the experiment on M. tuberculosis (Peptide 14D 10 µg/mL, average of two independent experiments, negative = slower), −7.3%; in the experiment with M. tuberculosis (Peptide 14D 25 µg/mL, average of two independent experiments, negative = slower) it was −48.7%; in the experiment with M. tuberculosis (Peptide 14D 50 µg/mL, average of two independent experiments, negative = slower) it was −207.6%. For the same substance, the “Increase of time to positivity, first experiment” value with M. tuberculosis (Peptide 14D 10 µg/mL) is on record as 8 h. Further, the “Increase of time to positivity, second experiment” value with M. tuberculosis (Peptide 14D 10 µg/mL) came out at 20 h. Moreover, the “Delay of growth (days to reach positivity relative to control)” value in the experiment on M. tuberculosis (Peptide 14D 50 µg/mL) is given as “about triple”.

Consider WKIVFWWRR-NH2 [Peptide 14], for which the Effect on growth result is recorded as “growth stimulating effect” in the experiment with Mycobacterium celatum; “growth stimulating effect” in experiment [5]; “growth stimulating effect” with M. bovis; “growth stimulating effect” in the experiment with Mycobacterium marinum; “enhance the growth” in the experiment on Mycobacterium abscessus. Also, the “Concentration at which growth inhibition of MTB is observed” value in experiment [2] was found to be 50 µg/mL. Moreover, the “Effect on growth of MTB compared to control” value in [2] is listed as “slight improvements”. Besides, in [2], the “Upper end of concentration range with hormetic response / growth stimulation in MTB” value came out at 10 µg/mL. Moreover, in [3], the “Dependence of growth-enhancing effect on starting inoculum” value is given as “lower inocula being more greatly affected”. For the same substance, the “Effect on growth of MAP compared to control” value in experiment [3] (peptide 20 µg/mL, […], 37 °C) is on record as “strongest effects”. The “Effect on TTP of MTB in words” value with M. tuberculosis (peptide 10 µg/mL, MGIT) is given as “strong hormetic response”. The “Time to Positivity (Days.Hours) Experiment 2a” value in the experiment with M. tuberculosis (peptide 10 µg/mL, MGIT, diluted inoculum, technical repeat 2a, TB control (no peptide) 15.01) was 13.23 Days.Hours. Also, the “Time to Positivity (Days.Hours) Experiment 2b” value with M. tuberculosis (peptide 10 µg/mL, MGIT, diluted inoculum, technical repeat 2b, TB control (no peptide) 15.20) was found to be 14.01 Days.Hours. The “Time to Positivity (Days.Hours) Experiment 1a” value in the experiment on M. tuberculosis (peptide 10 µg/mL, MGIT, less diluted inoculum, technical repeat 1a, TB control (no peptide) 7.02) is 6.01 Days.Hours. For the same substance, in the experiment on M. tuberculosis (peptide 10 µg/mL, MGIT, less diluted inoculum, technical repeat 1b, TB control (no peptide) 7.01), the “Time to Positivity (Days.Hours) Experiment 1b” value is recorded as 6.12 Days.Hours. Moreover, the “Average % Faster than Control” value in the experiment on M. tuberculosis (peptide 10 µg/mL, overall average of the averages of experiments 1a/1b and 2a/2b, negative = slower) came out at 9.1%.
